Where a name gives a salt, the structure may show the parent alone.

In the experiment the target is T1, TLR7/NFKb HEK cells (Homo sapiens, UniProt Q9NYK1).
T1 construct: expressed in transfected cells; host or cells: HEK cells (TLR7/NFKb reporter line)
T1 sequence (Q9NYK1 27-1049): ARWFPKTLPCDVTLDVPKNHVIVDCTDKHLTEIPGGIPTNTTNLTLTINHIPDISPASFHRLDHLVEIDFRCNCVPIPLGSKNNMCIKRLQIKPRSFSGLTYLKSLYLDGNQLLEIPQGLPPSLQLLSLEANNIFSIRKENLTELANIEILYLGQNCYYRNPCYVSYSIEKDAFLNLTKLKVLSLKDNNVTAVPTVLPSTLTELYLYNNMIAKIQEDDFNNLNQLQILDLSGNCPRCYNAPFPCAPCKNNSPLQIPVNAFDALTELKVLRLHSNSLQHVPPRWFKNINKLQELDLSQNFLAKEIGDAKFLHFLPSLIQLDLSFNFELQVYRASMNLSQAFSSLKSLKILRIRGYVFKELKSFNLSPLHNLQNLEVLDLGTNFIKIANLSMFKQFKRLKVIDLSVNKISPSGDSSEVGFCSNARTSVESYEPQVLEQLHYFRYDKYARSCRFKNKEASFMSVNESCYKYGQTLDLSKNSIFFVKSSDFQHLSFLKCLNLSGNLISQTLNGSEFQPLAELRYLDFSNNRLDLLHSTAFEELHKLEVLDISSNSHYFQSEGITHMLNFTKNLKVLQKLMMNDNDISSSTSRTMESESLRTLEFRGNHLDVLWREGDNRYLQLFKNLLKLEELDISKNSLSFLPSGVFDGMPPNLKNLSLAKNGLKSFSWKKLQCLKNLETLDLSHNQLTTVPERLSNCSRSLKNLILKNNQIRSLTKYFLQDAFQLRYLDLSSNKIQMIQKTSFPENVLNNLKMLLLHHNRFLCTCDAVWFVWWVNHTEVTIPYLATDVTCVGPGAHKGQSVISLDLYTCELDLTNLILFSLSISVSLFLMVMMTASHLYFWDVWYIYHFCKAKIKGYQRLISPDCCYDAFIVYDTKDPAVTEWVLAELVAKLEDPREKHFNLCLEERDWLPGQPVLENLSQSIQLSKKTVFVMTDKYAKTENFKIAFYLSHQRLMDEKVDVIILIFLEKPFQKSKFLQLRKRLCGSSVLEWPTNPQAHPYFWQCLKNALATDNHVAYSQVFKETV
In words: HEK Cell Assay (TLR7/NFKb reporter, Steady-Glo luciferase readout). Conditions: 30 min compound preincubation, then R*48 agonist for 5 hours, read-out: Potency. The class given is cell-based. A digest of the protocol: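 Steady-Glo luminescence after 5 h stimulation with R*48 agonist, following 30 min compound preincubation. Assay run in HEK cells carrying a TLR7/NFKb luciferase reporter, plated at 5000 cells/well and grown 24 h at 37° C (10% CO2) before treatment.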
Consider `CCN1CCC(NC(=O)C2CN(c3ccc(C#N)c4ncccc34)CC(F)(F)C2)CC1` (centres unmarked) [Compound 532, 1-(8-Cyano-quinolin-5-yl)-5,5-difluoro-piperidine-3-carboxylic Acid (1-ethyl-piperidin-4-yl)-amide], for which the IC50 is under 1 µM. Regarding `C[C@H]1C[C@@H](NC(=O)CN(C)CCO)CN(c2ccnc3nccnc23)C1` [Compound 145, 2-[(2-hydroxyethyl)(methyl)amino]-N-[(3R,5S)-5-methyl-1-[pyrido[2,3-b]pyrazin-8-yl]piperidin-3-yl]acetamide], the IC50 is over 10 µM.

Regarding `C[C@H]1C[C@@H](NC(=O)C2CC(F)(F)C2)CN(c2ccc(C(F)F)c3ncccc23)C1` [Compound 317, N-[(3R,5S)-1-[8-(difluoromethyl)quinolin-5-yl]-5-methylpiperidin-3-yl]-3,3-difluorocyclobutane-1-carboxamide], the IC50 is over 10 µM. As for `N#Cc1ccc(N2CCC(CNC(=O)CN3CCCCC3)CC2)c2cccnc12` [Compound 409, N-[1-(8-Cyano-quinolin-5-yl)-piperidin-4-ylmethyl]-2-piperidin-1-yl-acetamide], the IC50 is under 1 µM. Regarding `C[C@H]1C[C@@H](NC(=O)CN2CCC(F)(F)CC2)CN(c2ccc(C(F)(F)F)c3ncccc23)C1` [Compound 350, 2-(4,4-difluoropiperidin-1-yl)-N-[(3R,5S)-5-methyl-1-[8-(trifluoromethyl)quinolin-5-yl]piperidin-3-yl]acetamide], the IC50 was under 1 µM. `Cc1ncc(N2C[C@@H](C)C[C@@H](NC(=O)[C@@H](N)C3CC3)C2)c2cccnc12` [Compound 562, (S)-2-Amino-2-cyclopropyl-N-[(3R,5S)-5-methyl-1-(8-methyl-[1,7]naphthyridin-5-yl)-piperidin-3-yl]-acetamide]: the IC50 was under 1 µM. For the molecule `C[C@H]1C[C@@H](NC(=O)CN2CC(N)C2)CN(c2ccc(C(F)F)c3nccnc23)C1` [Compound 365, 2-(3-aminoazetidin-1-yl)-N-[(3R,5S)-1-[8-(difluoromethyl)quinoxalin-5-yl]-5-methylpiperidin-3-yl]acetamide], the IC50 lay in the range of 1 to 10 µM. For `C[C@H]1C[C@@H](NC(=O)CN2CCCN(C)CC2)CN(c2ccc(C(F)(F)F)c3nccnc23)C1` [Compound 362, 2-(4-methyl-1,4-diazepan-1-yl)-N-[(3R,5S)-5-methyl-1-[8-(trifluoromethyl)quinoxalin-5-yl]piperidin-3-yl]acetamide] the value was under 1 µM; for `N#Cc1ccc(N2CCC(C(=O)NCCN3CCCC3)CC2)c2cccnc12` [Compound 422, 1-(8-Cyano-quinolin-5-yl)-piperidine-4-carboxylic Acid (2-pyrrolidin-1-yl-ethyl)-amide], under 1 µM; for `C[C@H]1C[C@@H](NC(=O)C(C2CC2)N(C)C)CN(c2ccc(C(F)(F)F)c3ncccc23)C1` (stereo partly drawn) [Compound 519, 2-Cyclopropyl-2-dimethylamino-N-[(3R,5S)-5-methyl-1-(8-trifluoromethyl-quinolin-5-yl)-piperidin-3-yl]-acetamide], under 1 µM. The same measure for `C[C@H]1C[C@@H](NC(=O)CN2CCOCC2)CN(c2ccnc3nccnc23)C1` [Compound 110, N-[(3R,5S)-5-methyl-1-[pyrido[2,3-b]pyrazin-8-yl]piperidin-3-yl]-2-(morpholin-4-yl)acetamide]: over 10 µM; for `CN1CCC(N[C@H]2CN(c3ccc(C#N)c4nccnc34)CC(C)(C)C2)C1=O` (stereo partly drawn) [Compound 219, 8-[(5R)-3,3-dimethyl-5-[(1-methyl-2-oxopyrrolidin-3-yl)amino]piperidin-1-yl]quinoxaline-5-carbonitrile]: under 1 µM; for `CN1CCN(CC(=O)NC2CN(c3ccc(C(F)(F)F)c4ncccc34)CC(F)(F)C2)CC1` (centres unmarked) [Compound 511, N-[5,5-Difluoro-1-(8-trifluoromethyl-quinolin-5-yl)-piperidin-3-yl]-2-(4-methyl-piperazin-1-yl)-acetamide]: under 1 µM. For `N#Cc1ccc(N2C[C@@H](NC(=O)CC3(N)CCCCC3)C[C@@H](C(F)(F)F)C2)c2cccnc12` (racemic) [Compound 479, hydrochloride], the IC50 was under 1 µM.

Take `CC(C)[C@H](N)C(=O)N[C@@H]1C[C@H](C)CN(c2ccc(C#N)c3nccnc23)C1` [Compound 103, (2S)-2-amino-N-[(3R,5S)-1-(8-cyanoquinoxalin-5-yl)-5-methylpiperidin-3-yl]-3-methylbutanamide]: the IC50 is under 1 µM. On to `C[C@H]1C[C@@H](NC(=O)[C@H](N)CO)CN(c2ccc(C#N)c3nccnc23)C1` [Compound 106, (2R)-2-amino-N-[(3R,5S)-1-(8-cyanoquinoxalin-5-yl)-5-methylpiperidin-3-yl]-3-hydroxypropanamide], for which the IC50 was under 1 µM. For `CN1CCCC1CNC(=O)C1CCN(c2ccc(C(F)(F)F)c3ncccc23)CC1` (centres unmarked) [Compound 442, 1-(8-Trifluoromethyl-quinolin-5-yl)-piperidine-4-carboxylic acid (1-methyl-pyrrolidin-2-ylmethyl)-amide], the IC50 was under 1 µM. Regarding `C[C@@H]1CN(c2ccnc3nccnc23)C[C@H](CN2CCN(C)C(C)(C)C2)O1` [Compound 54, (2R,6S)-2-methyl-4-(pyrido[2,3-b]pyrazin-8-yl)-6-((3,3,4-trimethylpiperazin-1-yl)methyl)morpholine], the IC50 was under 1 µM.

Take `O=C(CN1CCCCC1)NCC1CCN(c2ccc(C(F)(F)F)c3ncccc23)CC1` [Compound 448, 2-Piperidin-1-yl-N-[1-(8-trifluoromethyl-quinolin-5-yl)-piperidin-4-ylmethyl]-acetamide]: the IC50 lay within 1 to 10 µM.

For `COCCN[C@@H]1C[C@H](C2CC2)CN(c2ccc(C#N)c3nccnc23)C1` (relative stereo) [Compound 176, cis-8-[3-cyclopropyl-5-[(2-methoxyethyl)amino]piperidin-1-yl]quinoxaline-5-carbonitrile], the IC50 was in the range of 1 to 10 µM. The same measure for `C[C@@H]1CN(c2ccc(C#N)c3nccnc23)C[C@H](CN2CCC(N3CCCC3)CC2)O1` [Compound 57, 8-((2R,6S)-2-methyl-6-((4-(pyrrolidin-1-yl)piperidin-1-yl)methyl)morpholino)quinoxaline-5-carbonitrile]: under 1 µM; for `COc1ccc(N2C[C@@H](C)C[C@@H](NC(=O)CC(C)(C)C)C2)c2cccnc12` [Compound 189, N-[(3R,5S)-1-(8-methoxyquinolin-5-yl)-5-methylpiperidin-3-yl]-3,3-dimethylbutanamide]: 1 to 10 µM. For `C[C@H]1C[C@@H](NC(=O)[C@H](C)N)CN(c2ccnc3nccnc23)C1` [Compound 27, (S)-2-amino-N-((3R,5S)-5-methyl-1-(pyrido[2,3-b]pyrazin-8-yl)piperidin-3-yl)propanamide], the IC50 was in the range of 1 to 10 µM. As to `C[C@H]1C[C@@H](NC(=O)C(N)C2CC2)CN(c2ccc(C(F)(F)F)c3nccnc23)C1` (stereo partly drawn) [Compound 294, 2-amino-2-cyclopropyl-N-[(3R,5S)-5-methyl-1-[8-(trifluoromethyl)quinoxalin-5-yl]piperidin-3-yl]acetamide], the IC50 is under 1 µM. On to `C[C@H]1C[C@@H](NC(=O)[C@@H](N)Cc2cccnc2)CN(c2ccc(C#N)c3nccnc23)C1` [Compound 116, (2S)-2-amino-N-[(3R,5S)-1-(8-cyanoquinoxalin-5-yl)-5-methylpiperidin-3-yl]-3-(pyridin-3-yl)propanamide], for which the IC50 was under 1 µM.

As to `O=C(NCC1CCN(c2ccnc3nccnc23)CC1)c1ccccn1` [Compound 392, Pyridine-2-carboxylic acid (1-pyrido[2,3-b]pyrazin-8-yl-piperidin-4-ylmethyl)-amide], the IC50 is over 10 µM.

Regarding `C[C@H]1C[C@@H](NC(=O)C2(O)CC2)CN(c2ccc(C#N)c3nccnc23)C1` [Compound 230, N-[(3R,5S)-1-(8-cyanoquinoxalin-5-yl)-5-methylpiperidin-3-yl]-1-hydroxycyclopropane-1-carboxamide], the IC50 was under 1 µM. As to `C[C@H]1C[C@@H](NC(=O)CC2CCCN(C)C2)CN(c2ccc(C#N)c3nccnc23)C1` (stereo partly drawn) [Compound 266, N-[(3R,5S)-1-(8-cyanoquinoxalin-5-yl)-5-methylpiperidin-3-yl]-2-(1-methylpiperidin-3-yl)acetamide hydrochloride], the IC50 was under 1 µM. Consider `CC(C)C(=O)NC1CCN(C[C@H]2CN(c3ccnc4nccnc34)C[C@@H](C)O2)CC1` [Compound 61, N-(1-(((2S,6R)-6-methyl-4-(pyrido[2,3-b]pyrazin-8-yl)morpholin-2-yl)methyl)piperidin-4-yl)isobutyramide], for which the IC50 is 1 to 10 µM.

The values above are taken from US10947213B1 (Merck Patent GmbH, priority 2015, dated 2021).
